In ChEMBL document CHEMBL5316291 (J Med Chem, 2023):
pIC50: −log10 of the molar value. Activity calls are given as the source filed them. No cut-off for these calls is given here.

Legend:
[1] = Toxicity in BALB/c mouse implanted with mouse CT26 cells assessed as liver damage at 100 mg/kg, po measured for 14 days by hematoxylin and eosin staining based fluorescence microscopic analysis; type: organism-based; settings: in vivo, 336 h, time 14 day
[2] = biological target: T1, Protein mono-ADP-ribosyltransferase TIPARP (Homo sapiens) (UniProt Q7Z3E1); test: Inhibition of human recombinant N-terminal FLAG tagged PARP7 (400 to 657 end residues) at 100 nM incubated for 1 hr by ELISA assay relative to control
T1 sequence (whole entry): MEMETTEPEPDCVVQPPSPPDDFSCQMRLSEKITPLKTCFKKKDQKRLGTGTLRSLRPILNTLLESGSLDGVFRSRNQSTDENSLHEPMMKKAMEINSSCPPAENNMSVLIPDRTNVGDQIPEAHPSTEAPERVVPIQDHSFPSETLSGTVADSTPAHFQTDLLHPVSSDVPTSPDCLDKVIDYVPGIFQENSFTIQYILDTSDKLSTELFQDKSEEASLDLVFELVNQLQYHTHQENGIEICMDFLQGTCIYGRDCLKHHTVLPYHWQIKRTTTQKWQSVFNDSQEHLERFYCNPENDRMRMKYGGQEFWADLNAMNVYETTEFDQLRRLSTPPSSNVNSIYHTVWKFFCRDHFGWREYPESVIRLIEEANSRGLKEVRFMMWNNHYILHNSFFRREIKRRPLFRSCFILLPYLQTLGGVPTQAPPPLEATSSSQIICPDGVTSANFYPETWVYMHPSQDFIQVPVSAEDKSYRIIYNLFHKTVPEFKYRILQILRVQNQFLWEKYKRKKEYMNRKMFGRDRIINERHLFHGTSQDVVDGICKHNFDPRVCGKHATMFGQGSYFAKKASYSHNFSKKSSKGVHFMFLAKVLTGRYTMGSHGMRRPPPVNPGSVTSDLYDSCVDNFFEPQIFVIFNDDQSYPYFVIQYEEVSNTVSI

[3] = biological target: T2, Protein mono-ADP-ribosyltransferase PARP11 (Homo sapiens, UniProt Q9NR21); test: Inhibition of human recombinant N-terminal GST-tagged / C-terminal His-tagged PARP11 (8 to 338 end residues) expressed in baculovirus infected Sf9 cells expression system incubated for 1 hr by ELISA assay
T2 sequence (Q9NR21 whole entry): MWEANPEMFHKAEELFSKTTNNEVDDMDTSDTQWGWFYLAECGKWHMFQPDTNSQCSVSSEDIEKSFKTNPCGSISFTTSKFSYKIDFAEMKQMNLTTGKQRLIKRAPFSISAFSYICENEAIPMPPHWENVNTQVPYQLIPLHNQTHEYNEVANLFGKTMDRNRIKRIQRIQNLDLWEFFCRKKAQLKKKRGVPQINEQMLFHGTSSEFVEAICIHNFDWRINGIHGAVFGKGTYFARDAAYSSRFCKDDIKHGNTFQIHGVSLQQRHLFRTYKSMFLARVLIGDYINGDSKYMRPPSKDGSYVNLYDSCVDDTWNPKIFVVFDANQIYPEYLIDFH

[4] = biological target: T3, Protein mono-ADP-ribosyltransferase TIPARP (Homo sapiens, UniProt Q7Z3E1); test: Inhibition of human recombinant N-terminal FLAG tagged PARP7 (400 to 657 end residues) incubated for 1 hr by ELISA assay
T3 sequence (Q7Z3E1 whole entry): T1 sequence (whole entry)

[5] = test system: CT26; test: Antitumor activity against mouse CT26 cells implanted in po dosed BALB/c mouse assessed as increase in IFN-beta levels measured after 14 days by RT-qPCR analysis; type: functional, organism-based; settings: dose 25-100 mg/kg, time 14.0 day
[6] = MRT(0 to infinity) in ICR mouse at 10 mg/kg, po measured upto 24 hrs by LC-MS/MS analysis; type: ADME, organism-based; settings: in vivo
[7] = Half life in ICR mouse at 1 mg/kg, iv measured upto 24 hrs by LC-MS/MS analysis; type: ADME, organism-based; settings: in vivo
[8] = MRT(0 to infinity) in ICR mouse at 1 mg/kg, iv measured upto 24 hrs by LC-MS/MS analysis; type: ADME, organism-based; settings: in vivo
[9] = test system: CT26; test: cells; settings: Mus musculus, CT26, 144 h
[10] = biological target: T4, Protein mono-ADP-ribosyltransferase TIPARP (Mus musculus) (UniProt Q8C1B2); test: Inhibition of PARP7 in mouse CT26 cells assessed as increase in […] levels at 49 to 4000 nmol/L measured after 48 hrs by RT-qPCR analysis; type: cell-based; settings: dose lower […], dose upper 4000.0 nmol/L
T4 sequence (whole entry): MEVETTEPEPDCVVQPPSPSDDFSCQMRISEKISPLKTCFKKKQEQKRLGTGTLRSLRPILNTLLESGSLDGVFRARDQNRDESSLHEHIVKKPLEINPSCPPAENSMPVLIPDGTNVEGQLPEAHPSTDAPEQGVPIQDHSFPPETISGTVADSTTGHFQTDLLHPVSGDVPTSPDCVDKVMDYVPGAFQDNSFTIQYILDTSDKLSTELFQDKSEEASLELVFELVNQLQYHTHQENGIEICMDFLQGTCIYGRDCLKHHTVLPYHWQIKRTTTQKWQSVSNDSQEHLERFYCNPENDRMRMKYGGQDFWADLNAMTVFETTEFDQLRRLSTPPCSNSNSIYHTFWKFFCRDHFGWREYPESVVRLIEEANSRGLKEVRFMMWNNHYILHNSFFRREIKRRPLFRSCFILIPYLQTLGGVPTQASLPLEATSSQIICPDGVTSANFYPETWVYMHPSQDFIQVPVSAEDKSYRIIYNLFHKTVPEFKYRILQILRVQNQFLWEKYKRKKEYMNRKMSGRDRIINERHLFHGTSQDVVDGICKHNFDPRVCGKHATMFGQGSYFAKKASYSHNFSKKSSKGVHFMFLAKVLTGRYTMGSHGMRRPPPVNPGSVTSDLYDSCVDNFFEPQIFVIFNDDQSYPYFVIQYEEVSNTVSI

[11] = Oral bioavailability in ICR mouse at 10 mg/kg measured upto 24 hrs by LC-MS/MS analysis; type: ADME, organism-based; settings: in vivo
[12] = test system: CT26; test: Antitumor activity against mouse CT26 cells implanted in BALB/c mouse assessed as increase in infiltration of CD4 positive CD8 positive T lymphocytes in tumors at 50 mg/kg, po measured after 14 days by flow cytometry (reference value: 6.67%); type: functional; settings: time 14 day
[13] = Toxicity in BALB/c mouse implanted with mouse CT26 cells assessed as lung damage at 100 mg/kg, po measured for 14 days by hematoxylin and eosin staining based fluorescence microscopic analysis; type: organism-based; settings: in vivo, 336 h, time 14 day
[14] = biological target: T4, Protein mono-ADP-ribosyltransferase TIPARP (Mus musculus); test: Inhibition of PARP7 in mouse CT26 cells assessed as increase in IFN-beta levels at 49 to 4000 nmol/L measured after 48 hrs by RT-qPCR analysis; type: cell-based; settings: dose lower […], dose upper 4000.0 nmol/L
[15] = Toxicity in BALB/c mouse implanted with mouse CT26 cells assessed as change in body weight at 1000 mg/kg, po measured upto 7 days; type: organism-based; settings: in vivo, 168 h, time < 7 day
[16] = Half life in ICR mouse at 10 mg/kg, po measured upto 24 hrs by LC-MS/MS analysis; type: ADME, organism-based; settings: in vivo
[17] = Toxicity in BALB/c mouse implanted with mouse CT26 cells assessed as spleen damage at 100 mg/kg, po measured for 14 days by hematoxylin and eosin staining based fluorescence microscopic analysis; type: organism-based; settings: in vivo, 336 h, time 14 day

C[C@@H](CN1CC(C(=O)N2CCN(c3ncc(C(F)(F)F)cn3)CC2)C1)Nc1cn[nH]c(=O)c1C(F)(F)F
Activity [1]: Non-Toxic
inhibition [2]: 70.5%
pIC50 [3]: 4.49
pIC50 [4]: 8.12
Activity [5]: Dose-Dependent Effect
MRT inf [6]: 1.97 h
t1/2 [7]: 1.44 h
MRT inf [8]: 1.68 h
pIC50 [9]: 4.89
inhibition [10]: Active
bioavailability [11]: 95.8%
Activity [12]: 26.6%
Activity [13]: Non-Toxic
inhibition [14]: Active
Activity [15]: Non-Toxic
t1/2 [16]: 1.74 h
Activity [17]: Non-Toxic
